Among the data in patent publication US20220380338A1, “CYCLOALKYL 3-OXOPIPERAZINE CARBOXAMIDES AND CYCLOHETEROALKYL 3-OXOPIPERAZINE CARBOXAMIDES AS NAV1.8 INHIBITORS” (Merck Sharp & Dohme LLC, priority 2021, published 2022) are IC50 values, retold here.

T1 sequence (Q9Y5Y9 whole entry): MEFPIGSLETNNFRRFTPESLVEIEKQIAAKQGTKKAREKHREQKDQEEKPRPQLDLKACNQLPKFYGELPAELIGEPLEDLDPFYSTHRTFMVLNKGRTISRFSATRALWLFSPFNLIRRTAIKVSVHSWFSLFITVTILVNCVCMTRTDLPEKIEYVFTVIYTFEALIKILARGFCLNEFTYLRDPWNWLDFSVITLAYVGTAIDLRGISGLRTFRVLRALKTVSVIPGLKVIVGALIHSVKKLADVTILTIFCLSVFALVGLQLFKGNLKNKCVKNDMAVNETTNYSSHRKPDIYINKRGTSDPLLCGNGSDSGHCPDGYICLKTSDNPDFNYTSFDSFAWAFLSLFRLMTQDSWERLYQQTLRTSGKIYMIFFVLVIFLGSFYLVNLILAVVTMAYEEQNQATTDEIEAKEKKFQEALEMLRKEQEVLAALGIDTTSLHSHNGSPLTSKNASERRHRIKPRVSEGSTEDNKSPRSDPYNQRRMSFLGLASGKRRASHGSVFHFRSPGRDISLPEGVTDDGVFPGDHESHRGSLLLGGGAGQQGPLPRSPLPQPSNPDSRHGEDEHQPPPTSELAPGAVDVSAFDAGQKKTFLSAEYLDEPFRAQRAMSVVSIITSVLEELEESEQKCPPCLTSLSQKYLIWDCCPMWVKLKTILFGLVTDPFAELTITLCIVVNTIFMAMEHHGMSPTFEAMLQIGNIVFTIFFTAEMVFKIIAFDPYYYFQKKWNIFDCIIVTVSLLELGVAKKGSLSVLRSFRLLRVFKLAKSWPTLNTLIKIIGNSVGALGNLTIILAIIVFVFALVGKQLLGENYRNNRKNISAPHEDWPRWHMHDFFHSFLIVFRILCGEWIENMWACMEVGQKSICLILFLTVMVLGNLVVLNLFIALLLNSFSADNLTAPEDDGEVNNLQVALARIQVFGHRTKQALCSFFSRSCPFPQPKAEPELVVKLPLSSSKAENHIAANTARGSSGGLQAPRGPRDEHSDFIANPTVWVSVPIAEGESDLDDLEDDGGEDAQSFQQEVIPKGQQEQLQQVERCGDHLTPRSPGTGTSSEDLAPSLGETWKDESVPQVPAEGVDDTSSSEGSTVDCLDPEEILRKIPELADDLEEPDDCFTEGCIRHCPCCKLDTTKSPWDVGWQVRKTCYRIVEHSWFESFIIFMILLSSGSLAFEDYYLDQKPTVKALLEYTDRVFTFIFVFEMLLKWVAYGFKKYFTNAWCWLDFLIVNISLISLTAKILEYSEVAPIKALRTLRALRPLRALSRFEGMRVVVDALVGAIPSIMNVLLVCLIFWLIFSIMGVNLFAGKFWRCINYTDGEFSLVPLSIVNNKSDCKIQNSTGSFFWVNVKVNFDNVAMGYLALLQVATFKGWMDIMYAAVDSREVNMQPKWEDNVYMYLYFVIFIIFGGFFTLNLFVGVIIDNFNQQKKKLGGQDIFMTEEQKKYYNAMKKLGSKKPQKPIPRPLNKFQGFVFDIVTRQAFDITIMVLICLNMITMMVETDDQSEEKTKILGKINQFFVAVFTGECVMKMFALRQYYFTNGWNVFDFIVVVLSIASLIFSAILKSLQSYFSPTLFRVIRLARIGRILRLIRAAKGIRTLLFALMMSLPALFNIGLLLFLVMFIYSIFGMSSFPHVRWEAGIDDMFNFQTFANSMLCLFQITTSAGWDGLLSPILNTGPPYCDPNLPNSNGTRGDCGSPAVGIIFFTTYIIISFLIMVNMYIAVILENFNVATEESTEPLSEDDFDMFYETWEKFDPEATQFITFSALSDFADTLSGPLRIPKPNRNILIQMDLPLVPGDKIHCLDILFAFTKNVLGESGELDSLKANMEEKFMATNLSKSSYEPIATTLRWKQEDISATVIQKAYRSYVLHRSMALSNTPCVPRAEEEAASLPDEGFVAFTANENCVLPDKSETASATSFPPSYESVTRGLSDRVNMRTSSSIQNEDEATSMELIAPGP

The test addresses T1, human NaV1.8 (Homo sapiens, UniProt Q9Y5Y9).
T1 construct: expressed in transfected cells
In words: Nav1.8 Qube® Assay (automated 384-well patch-clamp, inhibition of sodium current). Format: cell-based. The settings on record: human NaV1.8 channels stably expressed in HEK 293 cells, room temperature. The essentials:
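Whole-cell voltage clamp at room temperature in HEK293 cells stably expressing NaV1.8; from −90 mV hold, 10 s 1 Hz train of 20 ms pulses to 10 mV with 980 ms repolarization to −67 mV. Peak currents of 1st and 10th pulses give resting and inactivated-state IC50s, Hill fit.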
(In patch-clamp work, channel activity is measured electrically.)
Molecule `O=C1CN(C(=O)NC(c2ccc(F)c(Cl)c2F)[C@H]2CC[C@H](C(F)(F)F)CC2)CCN1` (single isomer, unassigned) [Example 10A, N-((R or S)-(3-chloro-2,4-difluoro-phenyl)(trans-4-(trifluoromethyl)cyclo-hexyl)methyl)-3-oxopiperazine-1-carboxamide] gave an IC50 of 311 nM.
The value for `O=C1CN(C(=O)NC(c2ccc(F)c(Cl)c2)C23CCC(C(F)(F)F)(CC2)CC3)CCN1` (single isomer, unassigned) [Example 12B, N-((S or R)-(3-chloro-4-fluoro-phenyl)(4-(trifluoro-methyl)bicyclo[2.2.2]octan-1-yl)methyl)-3-oxopiperazine-1-carboxamide] was 11.5 nM; that for `O=C1CN(C(=O)N[C@H](c2ccc(F)c(Cl)c2F)[C@H]2C[C@H](C(F)(F)F)C2)CCN1` [Example 26, N—((S)-(3-chloro-2,4-difluorophenyl)(trans-3-(trifluoromethyl)cyclobutyl)methyl)-3-oxopiperazine-1-carboxamide] was 6.82 nM; that for `C[C@@H]1C(=O)NCCN1C(=O)NC(c1ccc(F)c(Cl)c1F)C1CC(C(F)(F)F)C1` (single isomer, unassigned) [Example 20D] was 116 nM.
The value for `C[C@@H]1C(=O)NCCN1C(=O)NC(c1ccc(F)c(Cl)c1)C1CC2CCC(C1)C2(F)F` (single isomer, unassigned) [Example 3A, (2R)-N-((R or S)-(3-chloro-4-fluoro-phenyl)(8,8-difluoro-bicyclo[3.2.1]octan-3-yl)methyl)-2-methyl-3-oxo-piperazine-1-carboxamide] was 14.8 nM; that for `C[C@@H]1C(=O)NCCN1C(=O)NC(c1ccc(F)c(Cl)c1F)[C@H]1C[C@@H]1C(F)(F)F` (single isomer, unassigned) [Example 57D] was 12 nM.
As for `C[C@@H]1C(=O)NCCN1C(=O)NC(c1ccc(F)c(Cl)c1F)C1COc2ccccc2C1` (single isomer, unassigned) [Example 62D, (R)—N—((S or R)-(3-chloro-2,4-difluorophenyl)((S or R)-chroman-3-yl)methyl)-2-methyl-3-oxopiperazine-1-carboxamide], the figure is 0.8 nM.
`C[C@@H]1C(=O)NCCN1C(=O)NC(c1ccc(F)c(Cl)c1)C1CCC2(CC1)CC2(F)F` (single isomer, unassigned) [Example 19B]: the midpoint of inhibition, the IC50, lay at 3.23 nM.
In turn, `CC(N1CCC(C(NC(=O)N2CCNC(=O)[C@H]2C)c2ccc(F)c(Cl)c2)CC1)C(F)(F)F` (single isomer, unassigned) [Example 18C] yielded an IC50 of 91.6 nM.
In turn, `C[C@@H]1C(=O)NCCN1C(=O)NC(c1csc(C(F)(F)F)n1)[C@H]1CC[C@H](C(F)(F)F)CC1` (single isomer, unassigned) [Example 55A] showed a half-maximal inhibitory concentration (IC50) of 494 nM.
For `COC1CC(C(NC(=O)N2CCNC(=O)[C@H]2C)c2ccc(F)c(Cl)c2F)C1` (single isomer, unassigned) [Example 40B, (2R)-N-((R or S)-(3-chloro-2,4-difluoro-phenyl)(cis-3-methoxy-cyclobutyl)methyl)-2-methyl-3-oxopiperazine-1-carboxamide], the IC50 was determined as 14500 nM.

The IC50 is the midpoint of a concentration-inhibition curve. Low readings indicate higher potency, high ones lower potency.
